The record followed here is ChEMBL document CHEMBL3217441, “Aromatic chloride to nitrile transformation: medicinal and synthetic chemistry” (Medchemcomm, 2010).

The nature of series [1]: Half life in human liver microsomes. The class given is ADME. (In general: Microsomes from liver hold many membrane-bound enzymes, among them those of drug oxidation.)
A short description of series [2]: Lipophilicity, log D of the compound at pH 7.4. The format is physicochemical. The following applies: buffer.
Series [3] in a line: Inhibition of HIV-1 RDDP after 30 mins by scintillation counting analysis in presence of [3H]-TTP. The arrangement: species or system Human immunodeficiency virus 1.

With `CCc1nc(C)n(CC)c1Oc1cc(Cl)cc(C#N)c1`, the half-life (usually how long it takes for the measured level to halve) in series [1] amounted to 16 min. In addition, the logD – broadly, lipophilicity at a set pH, counting ionised and neutral species – in series [2] was determined as 3.2. In series [3], the concentration for half-maximal inhibition (IC50) (as a rule, the concentration at which inhibition is half-maximal) is 18 nM.
On the same counts, the results for `CCc1nc(C)n(CC)c1Oc1cc(C#N)cc(C#N)c1` are 101 min, 1.9 and 131 nM.
